According to patent publication US11078215B2, “Crystalline forms of lorlatinib maleate” (Pfizer Inc., priority 2016, dated 2021):
Where a name gives a salt, the structure may show the parent alone.

Key:
[1] = Slurry experiments, thermodynamic stability of lorlatinib maleate hydrate (Form 2) in a variety of solvent systems; type: physicochemical
Procedure: The thermodynamic stability of Form 2 was further assessed in variety of solvent systems at temperatures of 5° C. to 40° C. as shown in Table 11. Suspensions of Form 2 were prepared under the indicated conditions and equilibrated for 2 weeks. Resultant solids were analyzed by PXRD. […] Formation of new materials in ethanol and methanol is believed to be a solvated form.

[2] = Physical stability of Form 1 drug product vs. acetic acid solvate drug product; conditions: drug product
Source text: The physical stabilities of Form 1 and lorlatinib acetic acid solvate as drug product were investigated under a variety of conditions.

C[C@H]1Oc2cc(cnc2N)-c2c(nn(C)c2C#N)CN(C)C(=O)c2ccc(F)cc21 [lorlatinib maleate hydrate (Form 2), (10R)-7-amino-12-fluoro-2,10,16-trimethyl-15-oxo-10,15,16,17-tetrahydro-2H-8,4-(metheno)pyrazolo[4,3-h][2,5,11]benzoxadiazacyclotetradecine-3-carbonitrile (PF-06463922) Maleate Hydrate (Form 2)]
No conversion to Form 1 was detected: Conversion to Form 1 in slurry (summary) ([1]; variety of solvent systems, 5° C. to 40° C., 2 weeks)
Form 2: Slurry output, solid form by PXRD ([1]; 1,4-dioxane, Aw 0, 5° C., 2 weeks) | Slurry output, solid form by PXRD ([1]; 1,4-dioxane, Aw 0, 40° C., 2 weeks) | Slurry output, solid form by PXRD ([1]; 1,4-dioxane, Aw 0, RT, 2 weeks) | Slurry output, solid form by PXRD ([1]; EtOAc, Aw 0, 5° C., 2 weeks) | Slurry output, solid form by PXRD ([1]; EtOAc, Aw 0, 40° C., 2 weeks) | Slurry output, solid form by PXRD ([1]; EtOAc, Aw 0, RT, 2 weeks) | Slurry output, solid form by PXRD ([1]; EtOAc/water, Aw 0.1, 5° C., 2 weeks) | Slurry output, solid form by PXRD ([1]; EtOAc/water, Aw 0.1, 40° C., 2 weeks) | Slurry output, solid form by PXRD ([1]; EtOAc/water, Aw 0.1, RT, 2 weeks) | Slurry output, solid form by PXRD ([1]; EtOAc/water, Aw 0.3, 5° C., 2 weeks) | Slurry output, solid form by PXRD ([1]; EtOAc/water, Aw 0.3, 40° C., 2 weeks) | Slurry output, solid form by PXRD ([1]; EtOAc/water, Aw 0.3, RT, 2 weeks) | Slurry output, solid form by PXRD ([1]; EtOAc/water, Aw 0.75, 5° C., 2 weeks) | Slurry output, solid form by PXRD ([1]; EtOAc/water, Aw 0.75, 40° C., 2 weeks) | Slurry output, solid form by PXRD ([1]; EtOAc/water, Aw 0.75, RT, 2 weeks) | Slurry output, solid form by PXRD ([1]; Ethanol, Aw 0, 5° C., 2 weeks) | Slurry output, solid form by PXRD ([1]; MeOAc, Aw 0, 5° C., 2 weeks) | Slurry output, solid form by PXRD ([1]; MeOAc, Aw 0, 40° C., 2 weeks) | Slurry output, solid form by PXRD ([1]; MeOAc, Aw 0, RT, 2 weeks) | Slurry output, solid form by PXRD ([1]; TFE, Aw 0, 5° C., 2 weeks) | Slurry output, solid form by PXRD ([1]; TFE, Aw 0, RT, 2 weeks) | Slurry output, solid form by PXRD ([1]; acetone, Aw 0, 5° C., 2 weeks) | Slurry output, solid form by PXRD ([1]; acetone, Aw 0, 40° C., 2 weeks) | Slurry output, solid form by PXRD ([1]; acetone, Aw 0, RT, 2 weeks) | Slurry output, solid form by PXRD ([1]; acetone/water, Aw 0.1, 5° C., 2 weeks) | Slurry output, solid form by PXRD ([1]; acetone/water, Aw 0.1, 40° C., 2 weeks) | Slurry output, solid form by PXRD ([1]; acetone/water, Aw 0.1, RT, 2 weeks) | Slurry output, solid form by PXRD ([1]; acetone/water, Aw 0.3, 5° C., 2 weeks) | Slurry output, solid form by PXRD ([1]; acetone/water, Aw 0.3, 40° C., 2 weeks) | Slurry output, solid form by PXRD ([1]; acetone/water, Aw 0.3, RT, 2 weeks) | Slurry output, solid form by PXRD ([1]; acetone/water, Aw 0.75, 5° C., 2 weeks) | Slurry output, solid form by PXRD ([1]; acetone/water, Aw 0.75, 40° C., 2 weeks) | Slurry output, solid form by PXRD ([1]; acetone/water, Aw 0.75, RT, 2 weeks) | Slurry output, solid form by PXRD ([1]; acetone/water, Aw 0.9, 5° C., 2 weeks) | Slurry output, solid form by PXRD ([1]; acetone/water, Aw 0.9, RT, 2 weeks) | Slurry output, solid form by PXRD ([1]; acetonitrile, Aw 0, 5° C., 2 weeks) | Slurry output, solid form by PXRD ([1]; acetonitrile, Aw 0, 40° C., 2 weeks) | Slurry output, solid form by PXRD ([1]; acetonitrile, Aw 0, RT, 2 weeks) | Slurry output, solid form by PXRD ([1]; methanol, Aw 0, 5° C., 2 weeks) | Slurry output, solid form by PXRD ([1]; methanol/water, Aw 0.1, 5° C., 2 weeks) | Slurry output, solid form by PXRD ([1]; methanol/water, Aw 0.1, RT, 2 weeks) | Slurry output, solid form by PXRD ([1]; methanol/water, Aw 0.3, 5° C., 2 weeks) | Slurry output, solid form by PXRD ([1]; methanol/water, Aw 0.3, RT, 2 weeks) | Slurry output, solid form by PXRD ([1]; methanol/water, Aw 0.75, 5° C., 2 weeks) | Slurry output, solid form by PXRD ([1]; methanol/water, Aw 0.75, 40° C., 2 weeks) | Slurry output, solid form by PXRD ([1]; methanol/water, Aw 0.75, RT, 2 weeks)
amorphous: Slurry output, solid form by PXRD ([1]; TFE, Aw 0, 40° C., 2 weeks)
solvate: Slurry output, solid form by PXRD ([1]; Ethanol, Aw 0, 40° C., 2 weeks) | Slurry output, solid form by PXRD ([1]; methanol/water, Aw 0.1, 40° C., 2 weeks) | Slurry output, solid form by PXRD ([1]; methanol/water, Aw 0.3, 40° C., 2 weeks)
thermodynamically stable: Thermodynamic stability (summary) ([1]; wide range of water activities and solvent conditions)

CC(=O)O.C[C@H]1Oc2cc(cnc2N)-c2c(nn(C)c2C#N)CN(C)C(=O)c2ccc(F)cc21 [lorlatinib acetic acid solvate, reference compound]
~80% impurity: impurity (solid phase impurity), physical stability of drug product ([2]; 70° C./10% RH, 3 weeks) | impurity (solid phase impurity), physical stability of drug product ([2]; 70° C./40% RH, 2 weeks) | impurity (solid phase impurity), physical stability of drug product ([2]; 70° C./75% RH, 1 week)
~30% impurity: impurity (solid phase impurity), physical stability of drug product ([2]; 50° C./75% RH, 2 weeks)
